In brackets after ≈: the same amount, converted by molar mass.
Tested on: Mycobacterium tuberculosis H37Rv (rif-resistant)
Assay: microbe, parasite or virus in culture
Format: cell-based

## CO[C@H]1/C=C/O[C@@]2(C)Oc3c(C)c(O)c4c(c3C2=O)C2=NC3(CCN(CCn5c([N+](=O)[O-])cnc5C)CC3)NC2=C(NC(=O)/C(C)=C\C=C\[C@H](C)[C@H](O)[C@@H](C)[C@@H](O)[C@@H](C)[C@H](OC(C)=O)[C@@H]1C)C4=O [Example 1, 4-Deoxy-3,4-[2-spiro-[1-[2-(2-methyl-5-nitro-imidazol-1-yl)ethyl]-piperidin-4-yl]]-(1H)-imidazo-(2,5-dihydro)rifamycin S]
  antimicrobial activity in words, rifampin-resistant M. tuberculosis: retains activity
Mycobacterium tuberculosis, H37RV
  MIC: 5 µg/mL (≈ 5.3 µM)
